The values below come from patent US6780848B2, “Use of GPE to protect glial cells or non-dopaminergic cells from death from neural injury or disease” (NeuronZ, Ltd., priority 1993, dated 2004).

In data set [1] the test system is ischemic brain injury, late gestation fetal sheep. In words: Experiment 2: IGF-1 into lateral ventricle 2 hours after 30 minutes of brain ischemia in fetal sheep. Format: in vivo. The text has this: The objective of this study was to compare the effects of treatment either with IGF-1 (see FIG. 2) and previously published work with the NMDA antagonist MK810 after an ischemic brain injury on postischernic seizures and neuronal losses in fetal sheep. (Tan et al Ann Neurol 32:677-682 (1992)).
The methods were those of an earlier study (Tan et al Ann Neurol 32:677-682 (1992)). Briefly, late gestation fetal sheep were chronically instrumented to record EEG, nuchal activity and blood pressure, and were then returned to the uterus. Cortical EEG activity, nuchal activity and blood pressure were recorded throughout he experiment and the fetal brain subjected to 30 minutes of ischemia. Two hours later they were treated by an infusion of either 1 μg IGF-1 (n=6) or vehicle (artificial CSF) (n=6) into the lateral ventricle. Five days later the brains were fixed and assessed for neuronal loss as described previously (Tan et al Ann Neurol 32:677-682 (1992)).
In all cases the vehicle is the left-hand column and the effects of 1 μg of IGF-1 is on the right.

Data set [2] has the same test system. Particulars: ischemic model in fetal sheep; Tan et al Ann Neurol 32:677-682 (1992); cited from earlier work.
The test system of data set [3] is hypoxic-ischemic injury to one cerebral hemisphere, adult Wistar rats. In words: Experiment 1: IGF-1 and/or MK801 2 hours after unilateral hypoxic-ischemic injury, histology at 120 hours. Format: in vivo, rat. Particulars: treatment 2 hours after hypoxia, IGF-1 50 μg intraventricular, MK801 1 mg, controls 65%.
Procedure: One carotid artery was ligated and the animal was subjected two hours later to a defined period of inhalational hypoxia. The degree, length of hypoxia, ambient temperature and humidity were defined to standardise the degree of damage. They were sacrificed five days later for histological analysis using stains (acid-fuchsin) specific for necrotic neurons.
Adult Wistar rats (68 280-320 g) were prepared under 3% halothane/O2 anaesthesia. The right side carotid artery was ligated. A guide cannula was placed on the dura 8.2 mm anterior from bregma and 1.4 mm from midline on the right. The rats were allowed to recover from anaesthesia for 1 hour and were then placed in an incubator with humidity 85±5% and temperature 34±0.5C. for 1 hour before hypoxia. Oxygen concentration was reduced and maintained at 6±0.2 02% hypoxia for 10 minutes. […] Fifty micrograms of IGF-1 or vehicle alone (0.1% BSA in 0.15M PBS (pH 7.3)) were given via intra-ventricular (IVC) infusion. […] The intraventricular injections of 50 μg IGF-1 or vehicle alone were made into the right lateral ventricle at 1 μl/minute under 1.5%-2% halothane anaesthetic. […] The presence of cortical infarction, defined as a region of tissue death or parenchymal pan-necrosis due to death of glia as well as neurons, was determined via light microscopy by an assessor who was blinded to the experimental groupings.
Data set [4] concerns hypoxic-ischemic injury, 21 day old Wistar rats. To be noted: rat, in vivo, ip. The protocol: The objective of this study was to compare the effects of treatment with GPE to that of a vehicle given 2 hours after an hypoxic-ischemic injury. The dose range of 2 to 200 μg was chosen to span a range of systemic doses that are greater than that required centrally (see experiment 3).
Unilateral hypoxic-ischemic injury was induced in 21 day old, 45±5 g Wistar rats. The rats underwent unilateral carotid ligation under light halothane anaesthesia.
Following one hour recovery they were placed in an incubator at 34 deg C. 85±5% humidity for one hour before the injury. They were subjected to 1 min inhalation hypoxia (FiO2 8.0%) and then returned to room temperature (22 deg C.) and normoxia. […]
Surviving and dead neurons were discriminated using the thionin/acid fuchsin staining technique (Guan et al J Cereb Blood Flow Metab. 13:609-616 (1993). The results, in which the height of a point is given by the ratio as a percentage of live neurones in the CA1-2 region on the right side to the number on the left side are shown in FIG. 5. Column A is vehicle, column B is 2 μg of GPE, column C is 20 μg of GPE, and column D is 200 μg of GPE. In this figure, the P value (0.031) was calculated by a method using one way ANOVA comparing many groups after Arcsin transformation.

Take insulin-like growth factor 1 [IGF-1]: the “suppression of postischemic seizure activity” value in data set [1] (1 μg IGF-1 2 h after ischemia) is listed as “did not suppress the postischemic seizure activity”. The “neuronal rescue (neuronal loss scores)” value in data set [1] (1 μg IGF-1 into lateral ventricle 2 h after 30 minutes ischemia, assessed five days later) was “rescued neurons”. Further, in data set [2], the “suppression of cortical electroencephalographic activity” value is given as “did not suppress cortical electroencephalographic activity”. In addition, the “incidence of cortical infarction” value in data set [3] is 33%.

In the case of `C[C@]12N[C@H](Cc3ccccc31)c1ccccc12` [MK801, reference compound], in data set [3], the “incidence of cortical infarction” value turned out to be 50%.

Turning to `NCC(=O)N1CCC[C@H]1C(=O)N[C@@H](CCC(=O)O)C(=O)O` [GPE, gly-pro-glu], the “passage of the blood-brain barrier” value in data set [4] is on record as “can cross the blood-brain barrier”.
